Results from ChEMBL document CHEMBL2346657, “Synthesis of novel 2-amino-4-(5'-substituted 2'-phenyl-1H-indol-3'-yl)-6-aryl-4H-pyran-3-carbonitrile derivatives as antimicrobial and antioxidant agents” (2013).
Activity calls are given as the source filed them. How the calls were made is not given here.

Experiments:
Format in all cases: functional
Aspergillus terreus [1] = test: Antimicrobial activity against Aspergillus terreus MTCC 1782 at 500 ug/ml after 72 hrs by cup plate method; settings: MTCC 1782, 72 h, read-out: IZ
Aspergillus terreus [2] = test: Antimicrobial activity against Aspergillus terreus MTCC 1782 at 750 ug/ml after 72 hrs by cup plate method; settings: MTCC 1782, 72 h, read-out: IZ
Klebsiella pneumoniae [3] = test: Antimicrobial activity against Klebsiella pneumoniae NCTC 13368 at 500 ug/ml after 24 hrs by cup plate method; settings: NCTC 13368, 24 h, read-out: IZ
Aspergillus oryzae [4] = test: Antimicrobial activity against Aspergillus oryzae MTCC 3567 at 750 ug/ml after 72 hrs by cup plate method; settings: MTCC 3567, 72 h, read-out: IZ
Aspergillus terreus [5] = test: Antimicrobial activity against Aspergillus terreus MTCC 1782 at 1000 ug/ml after 72 hrs by cup plate method; settings: MTCC 1782, 72 h, read-out: IZ
Escherichia coli [6] = test: Antimicrobial activity against Escherichia coli MTCC 723 at 750 ug/ml after 24 hrs by cup plate method; settings: MTCC 723, 24 h, read-out: IZ
Escherichia coli [7] = test: Antimicrobial activity against Escherichia coli MTCC 723 at 1000 ug/ml after 24 hrs by cup plate method; settings: MTCC 723, 24 h, read-out: IZ
Aspergillus oryzae [8] = test: Antimicrobial activity against Aspergillus oryzae MTCC 3567 at 1000 ug/ml after 72 hrs by cup plate method; settings: MTCC 3567, 72 h, read-out: IZ
Aspergillus flavus [9] = test: Antimicrobial activity against Aspergillus flavus MTCC 1973 at 500 ug/ml after 72 hrs by cup plate method; settings: MTCC 1973, 72 h, read-out: IZ
Aspergillus niger [10] = test: Antimicrobial activity against Aspergillus niger MTCC 281 at 500 ug/ml after 72 hrs by cup plate method; settings: MTCC 281, 72 h, read-out: IZ
Aspergillus flavus [11] = test: Antimicrobial activity against Aspergillus flavus MTCC 1973 at 750 ug/ml after 72 hrs by cup plate method; settings: MTCC 1973, 72 h, read-out: IZ
Klebsiella pneumoniae [12] = test: Antimicrobial activity against Klebsiella pneumoniae NCTC 13368 at 1000 ug/ml after 24 hrs by cup plate method; settings: NCTC 13368, 24 h, read-out: IZ
Staphylococcus aureus [13] = test: Antimicrobial activity against Staphylococcus aureus ATCC 29513 at 750 ug/ml after 24 hrs by cup plate method; settings: ATCC 29513, 24 h, read-out: IZ
Staphylococcus aureus [14] = test: Antimicrobial activity against Staphylococcus aureus ATCC 29513 at 500 ug/ml after 24 hrs by cup plate method; settings: ATCC 29513, 24 h, read-out: IZ
Pseudomonas aeruginosa [15] = test: Antimicrobial activity against Pseudomonas aeruginosa MTCC 1688 at 750 ug/ml after 24 hrs by cup plate method; settings: MTCC 1688, 24 h, read-out: IZ
Aspergillus oryzae [16] = test: Antimicrobial activity against Aspergillus oryzae MTCC 3567 at 500 ug/ml after 72 hrs by cup plate method; settings: MTCC 3567, 72 h, read-out: IZ
Pseudomonas aeruginosa [17] = test: Antimicrobial activity against Pseudomonas aeruginosa MTCC 1688 at 1000 ug/ml after 24 hrs by cup plate method; settings: MTCC 1688, 24 h, read-out: IZ
[18] = Antioxidant activity assessed as metal chelating activity by measuring inhibition of ferrozine-Fe2+ complex formation at 25 to 100 ug/ml
Klebsiella pneumoniae [19] = test: Antimicrobial activity against Klebsiella pneumoniae NCTC 13368 at 750 ug/ml after 24 hrs by cup plate method; settings: NCTC 13368, 24 h, read-out: IZ
Pseudomonas aeruginosa [20] = test: Antimicrobial activity against Pseudomonas aeruginosa MTCC 1688 at 500 ug/ml after 24 hrs by cup plate method; settings: MTCC 1688, 24 h, read-out: IZ
Aspergillus niger [21] = test: Antimicrobial activity against Aspergillus niger MTCC 281 at 750 ug/ml after 72 hrs by cup plate method; settings: MTCC 281, 72 h, read-out: IZ
Aspergillus flavus [22] = test: Antimicrobial activity against Aspergillus flavus MTCC 1973 at 1000 ug/ml after 72 hrs by cup plate method; settings: MTCC 1973, 72 h, read-out: IZ
Escherichia coli [23] = test: Antimicrobial activity against Escherichia coli MTCC 723 at 500 ug/ml after 24 hrs by cup plate method; settings: MTCC 723, 24 h, read-out: IZ
Staphylococcus aureus [24] = test: Antimicrobial activity against Staphylococcus aureus ATCC 29513 at 1000 ug/ml after 24 hrs by cup plate method; settings: ATCC 29513, 24 h, read-out: IZ
Aspergillus niger [25] = test: Antimicrobial activity against Aspergillus niger MTCC 281 at 1000 ug/ml after 72 hrs by cup plate method; settings: MTCC 281, 72 h, read-out: IZ

Row | Compound | zone of inhibition at 500 µg/mL (Aspergillus terreus [1]) | zone of inhibition at 750 µg/mL (Aspergillus terreus [2]) | zone of inhibition at 500 µg/mL (Klebsiella pneumoniae [3]) | zone of inhibition at 750 µg/mL (Aspergillus oryzae [4]) | zone of inhibition at 1000 µg/mL (Aspergillus terreus [5]) | zone of inhibition at 750 µg/mL (Escherichia coli [6]) | zone of inhibition at 1000 µg/mL (Escherichia coli [7]) | zone of inhibition at 1000 µg/mL (Aspergillus oryzae [8]) | zone of inhibition at 500 µg/mL (Aspergillus flavus [9]) | zone of inhibition at 500 µg/mL (Aspergillus niger [10]) | zone of inhibition at 750 µg/mL (Aspergillus flavus [11]) | zone of inhibition at 1000 µg/mL (Klebsiella pneumoniae [12]) | zone of inhibition at 750 µg/mL (Staphylococcus aureus [13]) | zone of inhibition at 500 µg/mL (Staphylococcus aureus [14]) | zone of inhibition at 750 µg/mL (Pseudomonas aeruginosa [15]) | zone of inhibition at 500 µg/mL (Aspergillus oryzae [16]) | zone of inhibition at 1000 µg/mL (Pseudomonas aeruginosa [17]) | Activity [18] | zone of inhibition at 750 µg/mL (Klebsiella pneumoniae [19]) | zone of inhibition at 500 µg/mL (Pseudomonas aeruginosa [20]) | other results
1 | Cc1ccc2[nH]c(-c3ccccc3)c(C3C=C(c4ccc(Cl)cc4)Oc4nc5oc(=O)c(C#N)c(N)c5c(N)c43)c2c1 (stereo not given) | 10 mm | 9 mm | 11 mm | 3 mm | 8 mm | 13 mm | 13 mm | 3 mm | 5 mm | 10 mm | 5 mm | 9 mm | 13 mm | 13 mm | 10 mm | 4 mm | 10 mm | Active | 11 mm | 10 mm | zone of inhibition at 750 µg/mL (Aspergillus niger [21]): 10 mm; zone of inhibition at 1000 µg/mL (Aspergillus flavus [22]): 5 mm; zone of inhibition at 500 µg/mL (Escherichia coli [23]): 13 mm; zone of inhibition at 1000 µg/mL (Staphylococcus aureus [24]): 14 mm; zone of inhibition at 1000 µg/mL (Aspergillus niger [25]): 10 mm
2 | N#Cc1c(N)c2c(N)c3c(nc2oc1=O)OC(c1ccc(Cl)cc1)=CC3c1c(-c2ccccc2)[nH]c2ccccc12 (stereo not given) | 10 mm | 10 mm | 13 mm | 13 mm | 11 mm | 3 mm | 12 mm | 13 mm | 0 mm | 7 mm | 0 mm | 13 mm | 11 mm | 12 mm | 9 mm | 12 mm | 9 mm | Active | 13 mm | 10 mm | zone of inhibition at 750 µg/mL (Aspergillus niger [21]): 5 mm; zone of inhibition at 1000 µg/mL (Aspergillus flavus [22]): 8 mm; zone of inhibition at 500 µg/mL (Escherichia coli [23]): 3 mm; zone of inhibition at 1000 µg/mL (Staphylococcus aureus [24]): 12 mm; zone of inhibition at 1000 µg/mL (Aspergillus niger [25]): 5 mm
3 | Nc1nc(=O)[nH]c2c1C(c1c(-c3ccccc3)[nH]c3ccccc13)C=C(c1ccccc1)O2 (stereo not given) | 6 mm | 4 mm | 10 mm | 10 mm | 3 mm | 8 mm | 5 mm | 10 mm | 10 mm | 5 mm | 9 mm | 10 mm | 10 mm | 10 mm | 12 mm | 10 mm | 13 mm | Active | 10 mm | 12 mm | zone of inhibition at 750 µg/mL (Aspergillus niger [21]): 5 mm; zone of inhibition at 1000 µg/mL (Aspergillus flavus [22]): 9 mm; zone of inhibition at 500 µg/mL (Escherichia coli [23]): 10 mm; zone of inhibition at 1000 µg/mL (Staphylococcus aureus [24]): 5 mm; zone of inhibition at 1000 µg/mL (Aspergillus niger [25]): 3 mm
4 | Cc1ccc(C2=CC(c3c(-c4ccccc4)[nH]c4ccc(C)cc34)c3c(nc[nH]c3=O)O2)cc1 (stereo not given) | 9 mm | 9 mm | 8 mm | 3 mm | 9 mm | 2 mm | 2 mm | 3 mm | 10 mm | 3 mm | 9 mm | 8 mm | 2 mm | 2 mm | 8 mm | 3 mm | 8 mm | Active | 8 mm | 8 mm | zone of inhibition at 750 µg/mL (Aspergillus niger [21]): 3 mm; zone of inhibition at 1000 µg/mL (Aspergillus flavus [22]): 9 mm; zone of inhibition at 500 µg/mL (Escherichia coli [23]): 2 mm; zone of inhibition at 1000 µg/mL (Staphylococcus aureus [24]): 2 mm; zone of inhibition at 1000 µg/mL (Aspergillus niger [25]): 3 mm
5 | N#CC1=C(N)OC(c2ccccc2)=CC1c1c(-c2ccccc2)[nH]c2ccc(Cl)cc12 (stereo not given) | 9 mm | 8 mm | 10 mm | 3 mm | 8 mm | 10 mm | 10 mm | 3 mm | 3 mm | 8 mm | 3 mm | 10 mm | 9 mm | 10 mm | 12 mm | 8 mm | 13 mm | Active | 10 mm | 12 mm | zone of inhibition at 750 µg/mL (Aspergillus niger [21]): 9 mm; zone of inhibition at 1000 µg/mL (Aspergillus flavus [22]): 3 mm; zone of inhibition at 500 µg/mL (Escherichia coli [23]): 10 mm; zone of inhibition at 1000 µg/mL (Staphylococcus aureus [24]): 9 mm; zone of inhibition at 1000 µg/mL (Aspergillus niger [25]): 10 mm
6 | O=c1[nH]cnc2c1C(c1c(-c3ccccc3)[nH]c3ccccc13)C=C(c1ccccc1)O2 (stereo not given) | 9 mm | 8 mm | 11 mm | 5 mm | 8 mm | 6 mm | 6 mm | 5 mm | 9 mm | 6 mm | 9 mm | 10 mm | 10 mm | 10 mm | 4 mm | 5 mm | 4 mm | Active | 10 mm | 5 mm | zone of inhibition at 750 µg/mL (Aspergillus niger [21]): 6 mm; zone of inhibition at 1000 µg/mL (Aspergillus flavus [22]): 9 mm; zone of inhibition at 500 µg/mL (Escherichia coli [23]): 8 mm; zone of inhibition at 1000 µg/mL (Staphylococcus aureus [24]): 10 mm; zone of inhibition at 1000 µg/mL (Aspergillus niger [25]): 5 mm
7 | Nc1n[nH]c2c1C(c1c(-c3ccccc3)[nH]c3ccc(Cl)cc13)C=C(c1ccccc1)O2 (stereo not given) | 2 mm | 3 mm | 6 mm | 12 mm | 3 mm | 7 mm | 9 mm | 12 mm | 12 mm | 6 mm | 12 mm | 5 mm | 8 mm | 10 mm | 12 mm | 12 mm | 13 mm | Active | 5 mm | 12 mm | zone of inhibition at 750 µg/mL (Aspergillus niger [21]): 5 mm; zone of inhibition at 1000 µg/mL (Aspergillus flavus [22]): 9 mm; zone of inhibition at 500 µg/mL (Escherichia coli [23]): 7 mm; zone of inhibition at 1000 µg/mL (Staphylococcus aureus [24]): 8 mm; zone of inhibition at 1000 µg/mL (Aspergillus niger [25]): 5 mm
8 | O=c1[nH]cnc2c1C(c1c(-c3ccccc3)[nH]c3ccccc13)C=C(c1ccc(Cl)cc1)O2 (stereo not given) | 6 mm | 6 mm | 9 mm | 10 mm | 5 mm | 9 mm | 9 mm | 10 mm | 10 mm | 8 mm | 9 mm | 10 mm | 5 mm | 5 mm | 10 mm | 10 mm | 10 mm | Active | 9 mm | 10 mm | zone of inhibition at 750 µg/mL (Aspergillus niger [21]): 8 mm; zone of inhibition at 1000 µg/mL (Aspergillus flavus [22]): 8 mm; zone of inhibition at 500 µg/mL (Escherichia coli [23]): 9 mm; zone of inhibition at 1000 µg/mL (Staphylococcus aureus [24]): 5 mm; zone of inhibition at 1000 µg/mL (Aspergillus niger [25]): 8 mm
